The text below walks through data of US8273712B2, “Promoting wound healing by administering a prostaglandin E and granulocyte-macrophage colony stimulating factor” (Medical Research Council, priority 2005, dated 2012).

In data set [1] the test system is Male Sprague Dawley rats, 2 cm circular dorsal wounds. The data set can be described thus: Rat model of wound healing. In kind it is in vivo. The note with it: for Wound area relative to control (significance, in words): day 3 post surgery; for Wound colour observations relative to control: days 3-5; for Consistent brown wound colour scores: days 9 and 10, red indicates a less healed wound than brown. The method, then:
Male Sprague Dawley rats weighing between 250-300 grams were used as a wound healing model to assess the effects of PGE and GMCSF. 6 rats per treatment group were analysed to provide adequate data for statistical comparisons between control and treated groups. A total of 24 animals were used (4 groups of 6 rats). The four groups were control, 16,16-dimethyl PGE, GMCSF, and 16,16-dimethyl PGE+GMCSF groups. […] Two wounds were created on each animal, resulting in an “n” of 12 wounds per group.
Following acclimatisation (5-6 days), the rats were given a subcutaneous injection of Glycopyrolate (0.01 mg/kg at 0.02 mg/mL), dose volume 0.5 mL/kg, and anesthetised with an intraperitoneal injection of a Ketamine (40 mg/kg)/Xylazine (5 mg/kg) cocktail at 45 mg/mL (ket) and 5 mg/mL (xy), dose volume 0.88 mL/kg. Adequate depth of anesthesia was assessed by a toe pinch prior to beginning surgery, such that if any movement was noted, the animals were given more anaesthesia. […] Once anesthesia was accomplished, a 6×8 cm area was shaved in the dorsal area. Following shaving, a depilatory agent (Nair) was applied to the shaved area, and allowed to remain on the skin for approximately 5 minutes. After this time, the Nair was gently scraped from the skin with a blunt spatula and any residue was removed by rinsing the skin with deionised, distilled water and wiping with gauze sponges. The shaved area was then surgically prepared with chlorhexidine and alcohol scrub.
The rat was then placed on its abdomen and positioned in such a way that the limbs were relaxed and the spine was straight. […] The inside margins of the T were traced with a Sharpie pen, such that as upside-down “L” appeared on the right side of the rat and an upside-down and backward “L” appeared on the left side of the animal. These designated the cranial border of each wound, approximately 3 cm caudal to the scapular angles, and the medial border of each wound, approximately 0.25 cm from the midline.
To make the wound template, the rim of a cap from a Corning 15 ml conical tube was placed on the area and traced using a sterile surgical marker creating a 2 cm circle within one of the upside-down L's described above. An initial incision was made with a #10 scalpel blade at the medial edge of each circle. The incision was made through the panniculus carnosus into the areolar layer of the subcutaneous loose connective tissue. The excision was continued around the entire perimeter of the circle using forceps and Metzenbaum curved scissors while taking care to avoid damaging the deep fescial layers. The skin was removed to leave a circular wound. Where necessary, hemostasis was achieved by even compression with a sterile gauze pad.
The test agent or vehicle control, was administered at three different sites under the wound bed. Group assignments and dose levels for each treatment were as detailed in Table 8. Dose levels were based on body weight.
The wounds were not covered with any type of dressing. Approximately 30 minutes after recovery (determined by sternal recumbency and normal movement) the animals were given a subcutaneous injection of Buprenorphine (0.1 mg/kg) and transferred to individual cages with elevated stainless steel floors. Additional Buprenorphine was given every 6-8 hours as needed, then for the following 72 hours, 0.05 mg/kg was administered every 6-12 hours as needed.
Animals were anesthetised with isoflurane on days 3, 7, and 10 following surgery and the wounds were measured by caliper for width and length. The width and length measurements were then multiplied to calculate wound area and the mean wound area and standard error of the mean for each treatment determined. To test for any significant difference in wound healing relative to control treatment, a two-way analysis of variance (ANOVA) test was performed on the mean wound areas. In addition to wound area, wound healing was evaluated daily by observing wound colour. […]

A further data set has as its system PGE receptors. The note with it: cited from earlier work.
In data set [2] the target is T1, 15-hydroxy prostaglandin dehydrogenase (Homo sapiens, UniProt P15428).
T1 sequence (P15428 1-266): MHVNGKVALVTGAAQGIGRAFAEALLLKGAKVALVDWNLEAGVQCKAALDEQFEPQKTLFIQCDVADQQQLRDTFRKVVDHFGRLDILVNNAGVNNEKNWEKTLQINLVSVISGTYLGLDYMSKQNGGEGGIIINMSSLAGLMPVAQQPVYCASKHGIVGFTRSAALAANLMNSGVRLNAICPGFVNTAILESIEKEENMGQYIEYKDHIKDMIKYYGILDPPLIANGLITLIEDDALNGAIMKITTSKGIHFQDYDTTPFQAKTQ
The note with it: cited from earlier work.

The subject of a further data set is ML1 cells. The data set can be described thus: ELISA for measuring cytokine release. The note with it: monocyte. The class given is cell-based, human. The method, then:
Medium was removed from cells and analysed by ELISA. A monoclonal capture antibody was coated onto 96 well plates and culture medium was added each well. A standard curve was created with recombinant protein. After incubation and washing, a biotin-labelled monoclonal antibody was added. Following further incubation and washing, peroxidase-labelled streptavidin was added. After washing, a tetramethyl benzidine substrate was added and colour developed in proportion to the concentration of the cytokine in the original sample/standard. Colour was read using a plate photometer (Labsystems, Multiskan).
Paired antibodies and recombinant standards for CD14, CXCL8 (IL-8), and CCL2 (MCP-1) were obtained from R&D Systems Ltd, Abingdon UK and antibodies for IL-10 were obtained from Pharmingen (BD Bioscience, Erembodegem, Belgium), as shown below in Table 1.
Background: In an ELISA, binding on a coated surface is turned into a signal by an enzyme label.

The mark [3] stands for this setting: Day 3 post surgery, PGE analog 400 μg/kg and/or GMCSF 25 μg/kg per site under the wound bed.
Where [4] appears, read: Day 7 post surgery, PGE analog 400 μg/kg and/or GMCSF 25 μg/kg per site.
Where [5] appears, read: Day 10 post surgery, PGE analog 400 μg/kg and/or GMCSF 25 μg/kg per site.

As for 16,16-dimethyl PGE [PGE analog], the “Difference in wound area relative to control” value in data set [1] (Day 3) is listed as −52.21; in data set [1] (Day 7) it was −11.29; in data set [1] (Day 10), −9.185. For the same compound, the Mean wound area stood at 387.5 mm^2 in data set [1] (setting [3]), 255.4 mm^2 in data set [1] (setting [4]) and 135.1 mm^2 in data set [1] (setting [5]). Moreover, the “Wound area relative to control (significance, in words)” value in data set [1] is “No significant difference”. Moreover, the “Wound colour observations relative to control” value in data set [1] is “more consistent brown scores relative to the control treatment”. In addition, the “Consistent brown wound colour scores” value in data set [1] came out at 2. The “Activation of PGE receptors” value in the data set on PGE receptors is “activate all known PGE receptors”. The “Resistance to the main catabolic enzyme 15-hydroxy prostaglandin dehydrogenase” value in data set [2] is recorded as “resistant”.

Consider `COc1ccc(C2CNC(=O)C2)cc1OC1CCCC1` (stereo not drawn) [rolipram], for which the “IL-8 release induced by PGE and GMCSF” value in the data set on ML1 cells is “enhance IL-8 release”.

Consider GMCSF, for which the “Difference in wound area relative to control” value was −15.50 in data set [1] (Day 3), −18.63 in data set [1] (Day 7) and 8.761 in data set [1] (Day 10). In addition, the Mean wound area worked out at 424.2 mm^2 in data set [1] (setting [3]), 248.0 mm^2 in data set [1] (setting [4]) and 153.0 mm^2 in data set [1] (setting [5]). Also, in data set [1], the “Wound area relative to control (significance, in words)” value was “No significant difference”. For the same compound, the “Wound colour observations relative to control” value in data set [1] is reported as “more consistent brown scores relative to the control treatment”. For the same compound, the “Consistent brown wound colour scores” value in data set [1] is reported as 3.
